Here are results for 24 compounds from PMC7084386, “Sulfonamide Inhibition Studies of an α-Carbonic Anhydrase from Schistosoma mansoni, a Platyhelminth Parasite Responsible for Schistosomiasis” (International Journal of Molecular Sciences, 2020).

The first assay concerns the target T1, SmCA (Schistosoma mansoni, UniProt A0A4Y5UX87).
T1 construct: rSmCA N21-A298, signal peptide and C-terminal GPI-anchoring signal removed; Igk leader, C-terminal myc and His6 tags; secreted by CHO-S cells, IMAC; codon-optimized gene; native ~37 kDa GPI-linked glycoprotein
T1 sequence (A0A4Y5UX87 21-298): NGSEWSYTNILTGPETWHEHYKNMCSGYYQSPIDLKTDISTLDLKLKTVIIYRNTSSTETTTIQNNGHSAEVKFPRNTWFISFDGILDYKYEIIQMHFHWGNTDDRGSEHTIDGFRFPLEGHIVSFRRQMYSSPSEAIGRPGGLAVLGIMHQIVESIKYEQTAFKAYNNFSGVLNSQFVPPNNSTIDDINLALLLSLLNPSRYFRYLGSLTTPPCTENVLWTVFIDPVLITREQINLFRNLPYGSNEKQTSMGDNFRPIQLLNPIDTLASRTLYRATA
The experiment in a line: stopped-flow CO2 hydrase assay. The format is biochemical.
Conditions: not given
From the text:
stopped-flow CO2 hydrase assay on SmCA
As to `NCCc1ccc(S(N)(=O)=O)cc1` [compound 6, 6], the Ki stood at 7240 ± 144 nM.

The same assay, now with this note: read-out: SmCA ^b.
On to `Nc1cccc(S(N)(=O)=O)c1` [compound 1, 1], for which the Ki was 8420 ± 177 nM.

As for `Nc1ccc(S(N)(=O)=O)cc1` [compound 2, 2], the Ki is 6820 ± 150 nM.

Regarding `NS(=O)(=O)c1cccc(S(N)(=O)=O)c1` [compound 3, 3], the Ki stood at 916 ± 23.8 nM. In the case of `Cc1ccc(S(N)(=O)=O)cc1` [compound 4, 4], the Ki is 4530 ± 90 nM. With `NCc1ccc(S(N)(=O)=O)cc1` [compound 5, 5], the Ki came out at 9560 ± 191 nM.

In the case of `Nc1ccc(S(N)(=O)=O)cc1F` [compound 7, 7], the Ki came to 3190 ± 70 nM. Take `Nc1ccc(S(N)(=O)=O)cc1Cl` [compound 8, 8]: the Ki was found to be 737 ± 19.1 nM. In the case of `Nc1ccc(S(N)(=O)=O)cc1Br` [compound 9, 9], the Ki stood at 808 ± 16.9 nM. As to `NS(=O)(=O)c1cc(Cl)cc(Cl)c1O` [compound 10, 10], the Ki amounted to 9270 ± 185 nM. As to `Nc1cc(C(F)(F)F)c(S(N)(=O)=O)cc1S(N)(=O)=O` [compound 11, 11], the Ki is 183 ± 9.1 nM. Same read-out and setting: to `Nc1cc(Cl)c(S(N)(=O)=O)cc1S(N)(=O)=O` [compound 12, 12] belongs 645 ± 19.9 nM. For the compound `Nc1nnc(S(N)(=O)=O)s1` [compound 13, 13], the Ki turned out to be 137 ± 6.5 nM. The same measure, in the same setting: as for `Cn1nc(S(N)(=O)=O)sc1=N` [compound 14, 14], the figure is 325 ± 6.5 nM; as for `NS(=O)(=O)c1ccc(O)cc1` [compound 15, 15], 758 ± 26.5 nM. Still for that read-out and setting: to `NS(=O)(=O)c1ccc(CO)cc1` [compound 16, 16] belongs 1460 ± 32.1 nM. As for `NS(=O)(=O)c1ccc(CCO)cc1` [compound 17, 17], the Ki worked out at 606 ± 21.3 nM.

On to `NS(=O)(=O)c1ccc(C(=O)O)cc1` [compound 18, 18], for which the Ki turned out to be 821 nM.

For `Nc1nccc(Nc2ccc(S(N)(=O)=O)cc2)n1` [compound 19, 19], the Ki is 1830 ± 36.6 nM. For the compound `Nc1ccc(S(=O)(=O)Nc2nnc(S(N)(=O)=O)s2)cc1` [compound 20, 20], the Ki turned out to be 124 ± 5.9 nM. As for `NS(=O)(=O)c1ccc(CCNS(=O)(=O)c2ccc([N+](=O)[O-])cc2CO)cc1` [compound 21, 21], the Ki turned out to be 163 ± 6.5 nM. The same measure, in the same setting: to `Nc1ccc(S(=O)(=O)Nc2ccc(S(N)(=O)=O)cc2)cc1` [compound 22, 22] belongs 550 ± 14.8 nM. Take `Nc1ccc(S(=O)(=O)NCc2ccc(S(N)(=O)=O)cc2)cc1` [compound 23, 23]: the Ki came out at 524 ± 15.7 nM. `Nc1ccc(S(=O)(=O)NCCc2ccc(S(N)(=O)=O)cc2)cc1` [compound 24, 24]: the Ki was 183 ± 4.5 nM.
